Values after ≈ are worked out from the molar mass of the structure shown.
Target: T1, mammalian α-glucosidase (rat α-glucosidase; rat-intestinal acetone powder)
T1 construct: gene Si; crude soluble supernatant of sonicated rat-intestinal acetone powder (Sigma-Aldrich); native, not purified
Assay: colorimetric inhibition assay, absorbance at […] nm
Type: biochemical
Settings: substrate p-nitrophenyl α-D-glucopyranoside, phosphate buffer pH 6.8, 37 °C (as in screening protocol); mode printed both as competitive and as non-competitive

IC50: 32.08 µg/mL (≈ 105 µM)
Structure (SMILES): CN1C(=O)C(CCl)N(C(=O)OC(C)(C)C)C1C(C)(C)C (stereo not shown) [2-t-butyl-5-chloromethyl-3-methyl-4-oxoimidazolidine-1-carboxylic acid, t-butyl ester]
